In publication PMC10069031 (European Journal of Medical Research, 2023):
Where two headings read alike, the source gives them in different places.

Experiments:
[1] = target: T1, murine CSF1R (Mus musculus, UniProt P09581); assay: CSF1R inhibition in RAW264.7 cells (western blot of pCSF1R); assay type: cell-based; conditions: RAW264.7 cells; for IC50: drug 1 h, CSF1 100 ng/mL 2 min, mean ± SD (replicates), M-4, M-5 from pCSF1R bands without relating to total CSF1R; for signal of total CSF1R: western blot
T1 construct: Western blot analysis of total lysates (40 µg/lane) from mouse RAW264.7 cells treated as indicated; endogenous in cells; host or cells: RAW264.7 (murine macrophages)
T1 sequence (P09581 20-977): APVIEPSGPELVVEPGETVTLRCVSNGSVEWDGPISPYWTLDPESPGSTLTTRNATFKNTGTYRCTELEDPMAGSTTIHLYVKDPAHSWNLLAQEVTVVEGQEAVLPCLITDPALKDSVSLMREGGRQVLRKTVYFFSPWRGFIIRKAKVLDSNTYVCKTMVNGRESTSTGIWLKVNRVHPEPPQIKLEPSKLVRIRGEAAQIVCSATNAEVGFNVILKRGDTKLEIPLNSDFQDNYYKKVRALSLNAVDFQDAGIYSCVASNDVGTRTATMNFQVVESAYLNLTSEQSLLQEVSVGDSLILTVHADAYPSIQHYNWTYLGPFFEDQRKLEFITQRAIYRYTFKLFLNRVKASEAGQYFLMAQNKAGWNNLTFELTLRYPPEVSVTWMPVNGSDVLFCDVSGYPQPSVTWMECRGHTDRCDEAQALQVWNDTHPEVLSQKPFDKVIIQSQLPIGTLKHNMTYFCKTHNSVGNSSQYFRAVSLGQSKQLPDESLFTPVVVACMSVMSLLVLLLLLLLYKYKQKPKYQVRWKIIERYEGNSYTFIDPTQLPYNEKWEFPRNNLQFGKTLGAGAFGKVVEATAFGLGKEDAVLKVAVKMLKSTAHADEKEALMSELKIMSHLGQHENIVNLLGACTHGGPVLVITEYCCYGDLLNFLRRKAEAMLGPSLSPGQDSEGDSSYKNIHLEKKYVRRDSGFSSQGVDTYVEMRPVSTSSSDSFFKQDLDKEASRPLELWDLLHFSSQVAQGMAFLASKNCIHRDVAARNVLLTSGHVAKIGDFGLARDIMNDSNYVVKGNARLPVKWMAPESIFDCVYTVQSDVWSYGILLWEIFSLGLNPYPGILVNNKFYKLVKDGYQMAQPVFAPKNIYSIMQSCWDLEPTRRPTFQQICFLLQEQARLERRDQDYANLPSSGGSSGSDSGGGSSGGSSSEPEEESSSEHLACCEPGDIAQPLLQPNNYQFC
Experimental: (§1) RAW264.7 cells (10^6) were seeded into cell culture dishes 6 cm in diameter and incubated in 4 mL RPMI/10% fetal bovine serum (Biochrom) for 24 h at 37 °C in a humidified 5% CO2 atmosphere. Cells were washed once with phosphate-buffered saline (PBS) and starved in 3 mL RPMI/0.1% bovine serum albumin for another 24 h. Cells were then treated for 1 h at 37 °C with drugs at the indicated final concentrations, with 0.5% DMSO as vehicle control, or left untreated, and finally stimulated for 2 min at 37 °C with 100 ng/mL recombinant mouse CSF1 (R&D Systems) by adding 1 mL prewarmed starving medium containing 400 ng/mL CSF1. Dishes were placed on ice and cells were immediately washed with ice-cold PBS and lysed with 50 µL lysis buffer (50 mM HEPES pH 7.5, 150 mM NaCl, 1.5 mM MgCl2, 10% glycerol, 1% Triton X-100, 0.5% desoxycholate, 0.2% sodium dodecyl sulfate, 1 mM ethylene glycol-bis[β-aminoethyl ether]-N,N,N′,N′-tetraacetic acid, 100 mM NaF, 10 mM Na4P2O7, 1 mM Na3VO4, 1% Phosphatase Inhibitor Cocktail 3 [Sigma-Aldrich], 1 mM phenylmethyl sulfonyl fluoride, Complete Protease Inhibitor Cocktail [Roche CustomBiotech; 1 tablet/10 mL], and 50 U/mL Benzonase [Sigma-Aldrich]). Lysed cells were scraped into Eppendorf tubes, incubated on ice for 20 min, and centrifuged at 4 °C for 10 min at 13,000 rpm; supernatants (lysates) were transferred into new tubes and stored at −80 °C.
(§2) Protein concentrations were determined using Pierce bicinchoninic acid assay (Thermo Fisher Scientific) and 40 µg/lane of total lysate was separated by SDS-PAGE on 4–12% Criterion XT Bis–Tris Gels (Bio-Rad) and subsequently transferred to polyvinylidene difluoride membranes using the Trans Blot Turbo Blotting System (Bio-Rad). For antigen detection, membranes were blocked with PBS Odyssey blocking reagent (LI-COR Biosciences) for 1 h at room temperature (RT). Primary antibodies were incubated overnight at 4 °C and the fluorescent secondary antibodies were incubated for 1 h at RT. After each antibody incubation, blots were washed with PBS with 0.05% Tween 20 (Carl Roth) for 15–30 min at RT. Fluorescent signals were quantitatively captured using the Odyssey DLx Infrared Imaging System (LI-COR Biosciences) and the half-maximal inhibitory concentration (IC50) values were calculated using GraphPad software (version 7 or newer).

[2] = test system: ERK1/2; assay: Inhibition of ERK activation in CSF1-stimulated RAW264.7 cells (western blot); assay type: cell-based, mouse; conditions: mean ± SD (replicates), read-out: Mean kinase IC50 values: P(T185,202;Y187,204) ERK1/2 [WB]
Experimental: as §1, §2

[3] = test system: AKT; assay: Inhibition of AKT activation in CSF1-stimulated RAW264.7 cells (western blot); assay type: cell-based, mouse; conditions: mean ± SD (replicates), read-out: Mean kinase IC50 values: P(S473)AKT [WB]
Experimental: as §1, §2

[4] = target: VEGFR2 (Homo sapiens, UniProt P35968); assay: Competition binding assay, reference kinase
[5] = Binding to mouse plasma; assay type: in vitro ADME
[6] = read-out: Mean kinase IC50 values: P(Y559)CSF1R [WB]
[7] = read-out: Mean kinase IC50 values: P(Y721)CSF1R [WB]

Sequence of VEGFR2 (P35968 20-1356, species assumed): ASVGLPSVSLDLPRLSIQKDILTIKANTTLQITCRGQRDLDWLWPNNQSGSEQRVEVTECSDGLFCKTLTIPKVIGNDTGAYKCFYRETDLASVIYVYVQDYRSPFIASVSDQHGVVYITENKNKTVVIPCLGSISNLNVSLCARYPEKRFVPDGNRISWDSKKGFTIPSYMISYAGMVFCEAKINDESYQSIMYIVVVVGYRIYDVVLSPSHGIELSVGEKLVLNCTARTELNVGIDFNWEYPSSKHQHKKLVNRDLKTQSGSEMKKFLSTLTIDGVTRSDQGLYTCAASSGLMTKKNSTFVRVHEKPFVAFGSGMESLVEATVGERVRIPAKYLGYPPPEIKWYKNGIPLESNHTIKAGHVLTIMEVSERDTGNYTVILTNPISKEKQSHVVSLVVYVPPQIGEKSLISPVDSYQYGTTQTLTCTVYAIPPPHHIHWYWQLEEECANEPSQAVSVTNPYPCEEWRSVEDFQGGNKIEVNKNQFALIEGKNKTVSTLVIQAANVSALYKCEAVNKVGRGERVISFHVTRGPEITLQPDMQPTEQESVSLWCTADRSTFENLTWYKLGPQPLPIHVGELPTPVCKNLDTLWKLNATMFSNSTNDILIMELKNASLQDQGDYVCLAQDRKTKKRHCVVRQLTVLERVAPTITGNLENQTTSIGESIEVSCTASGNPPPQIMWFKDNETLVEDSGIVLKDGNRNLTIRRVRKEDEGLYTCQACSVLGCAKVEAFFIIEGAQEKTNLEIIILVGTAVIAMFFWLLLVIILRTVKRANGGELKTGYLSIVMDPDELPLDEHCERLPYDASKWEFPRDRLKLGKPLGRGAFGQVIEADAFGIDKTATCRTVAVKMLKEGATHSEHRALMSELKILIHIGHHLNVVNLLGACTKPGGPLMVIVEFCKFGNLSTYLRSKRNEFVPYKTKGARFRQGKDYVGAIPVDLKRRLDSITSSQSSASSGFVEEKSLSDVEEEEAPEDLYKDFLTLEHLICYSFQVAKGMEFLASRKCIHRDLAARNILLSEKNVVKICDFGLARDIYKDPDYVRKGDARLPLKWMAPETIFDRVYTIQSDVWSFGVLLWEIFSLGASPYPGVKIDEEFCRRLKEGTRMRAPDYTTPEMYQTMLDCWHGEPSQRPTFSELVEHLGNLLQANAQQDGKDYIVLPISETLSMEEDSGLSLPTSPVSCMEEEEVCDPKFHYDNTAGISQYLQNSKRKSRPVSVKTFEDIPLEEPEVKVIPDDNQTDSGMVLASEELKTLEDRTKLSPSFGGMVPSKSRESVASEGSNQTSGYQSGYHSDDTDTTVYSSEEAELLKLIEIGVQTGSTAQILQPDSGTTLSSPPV

Row | IC50 [1, 6] [nM] | IC50 [1, 7] [nM] | IC50 [2] [nM] | IC50 [3] [nM] | signal of total CSF1R [1] | IC50 [4] [nM] | unbound fraction [5] [%] | SMILES
1 | 66 ± 17 | 18 ± 7 | 239 ± 239 | 63 ± 37 | – | – | – | CNC(=O)c1cc(Oc2ccc(NC(=O)Nc3ccc(Cl)c(C(F)(F)F)c3)c(F)c2)cc[n+]1[O-] [M-2]
2 | 19 ± 15 | 18 ± 14 | 276 ± 197 | 93 ± 110 | destabilized | – | – | NC(=O)c1cc(Oc2ccc(NC(=O)Nc3ccc(Cl)c(C(F)(F)F)c3)c(F)c2)cc[n+]1[O-] [M-5]
3 | 273 ± 101 | 185 ± 29 | 783 ± 34 | 276 ± 30 | destabilized | 37 | 0.332 | NC(=O)c1cc(Oc2ccc(NC(=O)Nc3ccc(Cl)c(C(F)(F)F)c3)c(F)c2)ccn1 [M-4]
